Assay results from US20170037028A1 (BAYER PHARMA AKTIENGESELLSCHAFT, priority 2013, published 2017).
pIC50: −log10 of the molar value.

Biological target: T1, GLUT1 (Homo sapiens, UniProt P11166)
T1 sequence (P11166 1-492): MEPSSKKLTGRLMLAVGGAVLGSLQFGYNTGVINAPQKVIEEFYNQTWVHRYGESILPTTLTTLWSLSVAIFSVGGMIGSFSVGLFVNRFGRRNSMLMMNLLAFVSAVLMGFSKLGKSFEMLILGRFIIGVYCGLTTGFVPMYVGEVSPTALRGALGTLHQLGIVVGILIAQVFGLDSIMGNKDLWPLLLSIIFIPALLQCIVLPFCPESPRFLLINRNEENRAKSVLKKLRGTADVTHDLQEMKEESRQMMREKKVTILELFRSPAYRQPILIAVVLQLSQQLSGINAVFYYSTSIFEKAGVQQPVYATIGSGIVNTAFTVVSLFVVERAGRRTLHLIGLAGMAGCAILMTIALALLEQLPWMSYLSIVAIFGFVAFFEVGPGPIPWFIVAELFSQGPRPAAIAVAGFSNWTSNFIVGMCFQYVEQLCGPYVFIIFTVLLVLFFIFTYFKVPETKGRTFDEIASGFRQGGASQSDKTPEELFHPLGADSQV
Test: Indirect measurement of GLUT1 activity by quantification of intracellular ATP levels (glucose induced ATP increase)
Type: cell-based
Design: endogenous in cells; host or cells: DLD1 or CHO-K1
Conditions: read-out: IC50 regarding glucose induced ATP increase (GLUT1 inhibition)
Procedure, shortened: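 DLD1 or CHO-K1 cells were starved overnight in glucose-free medium with 1% FCS, then combined with an oxidative phosphorylation inhibitor. GLUT1 activity was read as glucose-induced ATP increase, GLUT2 as fructose-induced. Intracellular ATP was quantified by CellTiter-Glo luminescence.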

SMILES	pIC50
Cc1nn(Cc2ccc(F)cc2)c(C)c1NC(=O)c1cc(C(F)(F)F)nc2ccc(C(F)(F)F)cc12 [Example 98, N-[1-(4-fluorobenzyl)-3,5-dimethyl-1H-pyrazol-4-yl]-2,6-bis(trifluoromethyl)quinoline-4-carboxamide]	6.44
Cc1nn(Cc2ccc(F)cc2)c(C)c1NC(=O)c1cc(Cl)nc2ccccc12 [Example 99, 2-chloro-N-[1-(4-fluorobenzyl)-3,5-dimethyl-1H-pyrazol-4-yl]quinoline-4-carboxamide]	6.44
Cc1nn(Cc2ccc(F)cc2)c(C)c1NC(=O)c1cc(C2CC2)nc2cc(Br)ccc12 [Example 100, 7-bromo-2-cyclopropyl-N-[1-(4-fluorobenzyl)-3,5-dimethyl-1H-pyrazol-4-yl]quinoline-4-carboxamide]	6.43
Cc1cccc(Cn2nc(C)c(NC(=O)c3cc(C)nc4ccc(C)cc34)c2C)c1 [Example 101, N-[3,5-dimethyl-1-(3-methylbenzyl)-1H-pyrazol-4-yl]-2,6-dimethylquinoline-4-carboxamide]	6.40
Cc1cc(C#N)c2nc(C(F)(F)F)cc(C(=O)Nc3c(C)nn(Cc4ccc(F)cc4)c3C)c2c1 [Example 102, 8-cyano-N-[1-(4-fluorobenzyl)-3,5-dimethyl-1H-pyrazol-4-yl]-6-methyl-2-(trifluoromethyl)quinoline-4-carboxamide]	6.35
Cc1nn(Cc2ccc(F)cc2)c(C)c1NC(=O)c1cc(C(F)(F)F)nc2ccc(C#N)cc12 [Example 103, 6-cyano-N-[1-(4-fluorobenzyl)-3,5-dimethyl-1H-pyrazol-4-yl]-2-(trifluoromethyl)quinoline-4-carboxamide]	6.34
Cc1nn(Cc2cccc(F)c2)c(C)c1NC(=O)c1cc(C(F)(F)F)nc2c(Cl)cc(Cl)cc12 [Example 104, 6,8-dichloro-N-[1-(3-fluorobenzyl)-3,5-dimethyl-1H-pyrazol-4-yl]-2-(trifluoromethyl)quinoline-4-carboxamide]	6.28
Cc1cc(C(=O)Nc2c(C)nn(Cc3ccc(F)cc3)c2C)c2ccccc2n1 [Example 105, N-[1-(4-fluorobenzyl)-3,5-dimethyl-1H-pyrazol-4-yl]-2-methylquinoline-4-carboxamide]	6.28
Cc1nn(Cc2ccc(F)cc2)c(C)c1NC(=O)c1cc(C(F)(F)F)nc2cc(Cl)c(Cl)cc12 [Example 106, 6,7-dichloro-N-[1-(4-fluorobenzyl)-3,5-dimethyl-1H-pyrazol-4-yl]-2-(trifluoromethyl)quinoline-4-carboxamide]	6.24
Cc1ccc2nc(C)cc(C(=O)Nc3c(C)nn(Cc4ccc(C(F)(F)F)cc4)c3C)c2c1 [Example 107, N-{3,5-dimethyl-1-[4-(trifluoromethyl)benzyl]-1H-pyrazol-4-yl}-2,6-dimethylquinoline-4-carboxamide]	6.23
Cc1nn(Cc2ccc(F)cc2)c(C)c1NC(=O)c1cc(C2CC2)nc2c(C(F)(F)F)cccc12 [Example 108, 2-cyclopropyl-N-[1-(4-fluorobenzyl)-3,5-dimethyl-1H-pyrazol-4-yl]-8-(trifluoromethyl)quinoline-4-carboxamide]	6.17
COc1cccc(Cn2nc(C)c(NC(=O)c3cc(C)nc4ccc(C)cc34)c2C)c1 [Example 109, N-[1-(3-methoxybenzyl)-3,5-dimethyl-1H-pyrazol-4-yl]-2,6-dimethylquinoline-4-carboxamide]	6.16
COc1cc(C(=O)Nc2c(C)nn(Cc3ccccn3)c2C)c2ccccc2n1 [Example 110, N-[3,5-dimethyl-1-(pyridin-2-ylmethyl)-1H-pyrazol-4-yl]-2-methoxyquinoline-4-carboxamide]	6.15
Cc1ccc2nc(C)cc(C(=O)Nc3c(C)nn(Cc4ccccc4C)c3C)c2c1 [Example 111, N-[3,5-dimethyl-1-(2-methylbenzyl)-1H-pyrazol-4-yl]-2,6-dimethylquinoline-4-carboxamide]	6.15
Cc1ccc2nc(C)cc(C(=O)Nc3c(C)nn(Cc4ccccc4F)c3C)c2c1 [Example 112, N-[1-(2-fluorobenzyl)-3,5-dimethyl-1H-pyrazol-4-yl]-2,6-dimethylquinoline-4-carboxamide]	6.11
Cc1nn(Cc2cccc(OC(F)(F)F)c2)c(C)c1NC(=O)c1cc(C(F)(F)F)nc2ccc(Br)cc12 [Example 113, 6-bromo-N-{3,5-dimethyl-1-[3-(trifluoromethoxy)benzyl]-1H-pyrazol-4-yl}-2-(trifluoromethyl)quinoline-4-carboxamide]	6.09
Cc1ccc2nc(C)cc(C(=O)Nc3c(C)nn(Cc4ccccc4C#N)c3C)c2c1 [Example 114, N-[1-(2-cyanobenzyl)-3,5-dimethyl-1H-pyrazol-4-yl]-2,6-dimethylquinoline-4-carboxamide]	6.08
COc1cc(C(=O)Nc2c(C)nn(Cc3cccc(OC(F)(F)F)c3)c2C)c2ccccc2n1 [Example 115, N-{3,5-dimethyl-1-[3-(trifluoromethoxy)benzyl]-1H-pyrazol-4-yl}-2-methoxyquinoline-4-carboxamide]	6.08
Cc1cccnc1Cn1nc(C)c(NC(=O)c2cc(C(F)(F)F)nc3ccc(Br)cc23)c1C [Example 116, 6-bromo-N-{3,5-dimethyl-1-[(3-methylpyridin-2-yl)methyl]-1H-pyrazol-4-yl}-2-(trifluoromethyl)quinoline-4-carboxamide]	6.05
Cc1ccc2nc(C)cc(C(=O)Nc3c(C)nn(Cc4cccc(OC(F)(F)F)c4)c3C)c2c1 [Example 117, N-{3,5-dimethyl-1-[3-(trifluoromethoxy)benzyl]-1H-pyrazol-4-yl}-2,6-dimethylquinoline-4-carboxamide]	6.03
Cc1nn(Cc2ccccc2C#N)c(C)c1NC(=O)c1cc(C(C)C)nc2ccc(Br)cc12 [Example 118, 6-bromo-N-[1-(2-cyanobenzyl)-3,5-dimethyl-1H-pyrazol-4-yl]-2-(propan-2-yl)quinoline-4-carboxamide]	9.30
Cc1nn(Cc2ccc(F)cc2)c(C)c1NC(=O)c1cc(C(N)=O)nc2ccc(Br)cc12 [Example 119, 6-bromo-N^4-[1-(4-fluorobenzyl)-3,5-dimethyl-1H-pyrazol-4-yl]quinoline-2,4-dicarboxamide]	8.89
Cc1nn(Cc2ccc(F)cc2)c(C)c1NC(=O)c1cc(C(N)=O)nc2cc(F)c(F)cc12 [Example 120, 6,7-difluoro-N^4-[1-(4-fluorobenzyl)-3,5-dimethyl-1H-pyrazol-4-yl]quinoline-2,4-dicarboxamide]	8.82
Cc1nn(Cc2ccc(F)cc2)c(C)c1NC(=O)c1cc(C(F)(F)F)nc2cc(F)c(Cl)cc12 [Example 121, 6-chloro-7-fluoro-N-[1-(4-fluorobenzyl)-3,5-dimethyl-1H-pyrazol-4-yl]-2-(trifluoromethyl)quinoline-4-carboxamide]	8.77
Cc1nn(Cc2ccc(F)cc2)c(C)c1NC(=O)c1cc(C(N)=O)nc2ccccc12 [Example 122, N^4-[1-(4-fluorobenzyl)-3,5-dimethyl-1H-pyrazol-4-yl]quinoline-2,4-dicarboxamide]	8.72
Cc1nn(Cc2ccc(F)c(F)c2)c(C)c1NC(=O)c1cc(C2CC2)nc2ccc(Br)cc12 [Example 123, 6-bromo-2-cyclopropyl-N-[1-(3,4-difluorobenzyl)-3,5-dimethyl-1H-pyrazol-4-yl]quinoline-4-carboxamide]	8.70
